Earlier results on one compound are cited in PMC3792011 (Clinical Pharmacology : Advances and Applications, 2013).

Several values for one entry are separate records, joined by “and”; a condition that tells them apart may be missing. Equal values may be shown once.

For data set [1] the following is noted: treatment guidelines.
The conditions of data set [2]: steady state; bibliographic data.

Turning to `COC(=O)N[C@H](C(=O)N[C@@H](Cc1ccccc1)[C@@H](O)CN(Cc1ccc(-c2ccccn2)cc1)NC(=O)[C@@H](NC(=O)OC)C(C)(C)C)C(C)(C)C` [ATZ, Atazanavir], the “Recommended upper limit of plasma concentration (risk of hyperbilirubinemia)” value in data set [1] is less than 1.1 µmol/L. In data set [2], the “AUC, geometric mean (CV %)” value is 65.4 (0.1) μmol · h/L; the “AUC, mean (SD)” value is recorded as 76.4 (50.1) μmol · h/L; the “Cmax_SS_ATZ, geometric mean (CV %)” value is reported as 6.2 (0.1) μmol/L; the “Cmax_SS_ATZ, mean (SD)” value was 7.4 (4.3) μmol/L. For the same compound, in data set [2], the “Cmin_SS_ATZ, geometric mean (CV %)” value is 0.9 μmol/L and 0.9 (0.1) μmol/L; the “Cmin_SS_ATZ, mean (SD)” value is 1.2 (1.2) μmol/L; the “T-half, mean (SD)” value is 8.6 (2.3) h.
